According to PubChem BioAssay (NCI):
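At the GI50, growth is halved. At the TGI there is no net growth.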

Key:
Test in all cases: growth of human tumour cells (NCI), 384-well format
786-0 renal = tested on: 786-0 renal
A498 renal = tested on: A498 renal
A549 NSCLC = tested on: A549 NSCLC
ACHN renal = tested on: ACHN renal
BT-549 breast = tested on: BT-549 breast
CAKI-1 renal = tested on: CAKI-1 renal
CCRF-CEM leukemia = tested on: CCRF-CEM leukemia
COLO 205 colon = tested on: COLO 205 colon
DU-145 prostate = tested on: DU-145 prostate
EKVX NSCLC = tested on: EKVX NSCLC
HCC-2998 colon = tested on: HCC-2998 colon
HCT-116 colon = tested on: HCT-116 colon
HCT-15 colon = tested on: HCT-15 colon
HL-60(TB) leukemia = tested on: HL-60(TB) leukemia
HOP-62 NSCLC = tested on: HOP-62 NSCLC
HOP-92 NSCLC = tested on: HOP-92 NSCLC
HS 578T breast = tested on: HS 578T breast
HT29 colon = tested on: HT29 colon
IGROV1 ovarian = tested on: IGROV1 ovarian
KM12 colon = tested on: KM12 colon
LOX IMVI melanoma = tested on: LOX IMVI melanoma
M14 melanoma = tested on: M14 melanoma
MALME-3M melanoma = tested on: MALME-3M melanoma
MCF7 breast = tested on: MCF7 breast
MDA-MB-231 breast = tested on: MDA-MB-231 breast
MDA-MB-435 melanoma = tested on: MDA-MB-435 melanoma
MDA-MB-468 breast = tested on: MDA-MB-468 breast
MOLT-4 leukemia = tested on: MOLT-4 leukemia
NCI-H226 lung = tested on: NCI-H226 lung
NCI-H23 lung = tested on: NCI-H23 lung
NCI-H322M lung = tested on: NCI-H322M lung
NCI-H460 NSCLC = tested on: NCI-H460 NSCLC
NCI-H522 lung = tested on: NCI-H522 lung
NCI/ADR-RES ovarian = tested on: NCI/ADR-RES ovarian
OVCAR-3 ovarian = tested on: OVCAR-3 ovarian
OVCAR-4 ovarian = tested on: OVCAR-4 ovarian
OVCAR-5 ovarian = tested on: OVCAR-5 ovarian
OVCAR-8 ovarian = tested on: OVCAR-8 ovarian
PC-3 prostate = tested on: PC-3 prostate
RPMI-8226 leukemia = tested on: RPMI-8226 leukemia
RXF 393 renal = tested on: RXF 393 renal
SF-268 CNS = tested on: SF-268 CNS
SF-295 CNS = tested on: SF-295 CNS
SF-539 CNS = tested on: SF-539 CNS
SK-MEL-28 melanoma = tested on: SK-MEL-28 melanoma
SK-MEL-5 melanoma = tested on: SK-MEL-5 melanoma
SK-OV-3 ovarian = tested on: SK-OV-3 ovarian
SN12C renal = tested on: SN12C renal
SNB-19 CNS = tested on: SNB-19 CNS
SNB-75 CNS = tested on: SNB-75 CNS
SR leukemia = tested on: SR leukemia
SW-620 colon = tested on: SW-620 colon
T-47D breast = tested on: T-47D breast
TK-10 renal = tested on: TK-10 renal
U251 glioblastoma = tested on: U251 glioblastoma
UACC-257 melanoma = tested on: UACC-257 melanoma
UACC-62 melanoma = tested on: UACC-62 melanoma
UO-31 renal = tested on: UO-31 renal

`CC(O)c1cc(C(=O)N[C@@H](C)Cn2ccc(-c3ccc(C#N)c(Cl)c3)n2)n[nH]1` (stereo partly specified) was tested, and the GI50 (786-0 renal) was greater than 100 µM, the TGI (786-0 renal) was greater than 100 µM and the GI50 (A498 renal) was greater than 100 µM. The TGI (A498 renal) was greater than 100 µM, the GI50 (A549 NSCLC) was greater than 93.4 µM and the TGI (A549 NSCLC) was greater than 100 µM. For the same compound, the GI50 (ACHN renal) was greater than 46.4 µM, the TGI (ACHN renal) was greater than 69.6 µM and the GI50 (BT-549 breast) was 36.7 µM. For the same compound, the TGI (BT-549 breast) was 98.6 µM, the GI50 (CAKI-1 renal) was greater than 88.3 µM and the TGI (CAKI-1 renal) was greater than 100 µM. It also gave a GI50 (CCRF-CEM leukemia) of 31.5 µM, a TGI (CCRF-CEM leukemia) greater than 100 µM and a GI50 (COLO 205 colon) greater than 82.6 µM. It also gave a TGI (COLO 205 colon) greater than 100 µM, a GI50 (DU-145 prostate) greater than 100 µM and a TGI (DU-145 prostate) greater than 100 µM. It also gave a GI50 (EKVX NSCLC) of 34.8 µM, a TGI (EKVX NSCLC) greater than 100 µM and a GI50 (HCC-2998 colon) greater than 100 µM. For the same compound, the TGI (HCC-2998 colon) was greater than 100 µM, the GI50 (HCT-116 colon) was 33.8 µM and the TGI (HCT-116 colon) was greater than 100 µM. For the same compound, the GI50 (HCT-15 colon) was 59 µM, the TGI (HCT-15 colon) was greater than 100 µM and the GI50 (HL-60(TB) leukemia) was 28.9 µM. It also gave a TGI (HL-60(TB) leukemia) greater than 61.9 µM, a GI50 (HOP-62 NSCLC) greater than 67.6 µM and a TGI (HOP-62 NSCLC) greater than 100 µM. For the same compound, the GI50 (HOP-92 NSCLC) was greater than 100 µM, the TGI (HOP-92 NSCLC) was greater than 100 µM and the GI50 (HS 578T breast) was 65.6 µM. The TGI (HS 578T breast) was greater than 100 µM, the GI50 (HT29 colon) was greater than 100 µM and the TGI (HT29 colon) was greater than 100 µM. The GI50 (IGROV1 ovarian) was greater than 100 µM, the TGI (IGROV1 ovarian) was greater than 100 µM and the GI50 (KM12 colon) was greater than 92.4 µM. For the same compound, the TGI (KM12 colon) was greater than 100 µM, the GI50 (LOX IMVI melanoma) was 40.2 µM and the TGI (LOX IMVI melanoma) was greater than 100 µM. The GI50 (M14 melanoma) was greater than 83.3 µM, the TGI (M14 melanoma) was greater than 100 µM and the GI50 (MALME-3M melanoma) was greater than 56.3 µM. For the same compound, the TGI (MALME-3M melanoma) was greater than 100 µM, the GI50 (MCF7 breast) was 57.7 µM and the TGI (MCF7 breast) was greater than 100 µM. For the same compound, the GI50 (MDA-MB-231 breast) was 42.1 µM, the TGI (MDA-MB-231 breast) was greater than 100 µM and the GI50 (MDA-MB-435 melanoma) was greater than 74.1 µM. For the same compound, the TGI (MDA-MB-435 melanoma) was greater than 100 µM, the GI50 (MDA-MB-468 breast) was 12 µM and the TGI (MDA-MB-468 breast) was 42 µM. The GI50 (MOLT-4 leukemia) was 15.2 µM, the TGI (MOLT-4 leukemia) was 29 µM and the GI50 (NCI-H226 lung) was 35.6 µM. For the same compound, the TGI (NCI-H226 lung) was greater than 75.9 µM, the GI50 (NCI-H23 lung) was 27.2 µM and the TGI (NCI-H23 lung) was greater than 100 µM. For the same compound, the GI50 (NCI-H322M lung) was 34.9 µM, the TGI (NCI-H322M lung) was greater than 100 µM and the GI50 (NCI-H460 NSCLC) was greater than 76.4 µM. It also gave a TGI (NCI-H460 NSCLC) greater than 100 µM, a GI50 (NCI-H522 lung) of 43.3 µM and a TGI (NCI-H522 lung) greater than 100 µM. The GI50 (NCI/ADR-RES ovarian) was greater than 100 µM, the TGI (NCI/ADR-RES ovarian) was greater than 100 µM and the GI50 (OVCAR-3 ovarian) was greater than 94.2 µM. The TGI (OVCAR-3 ovarian) was greater than 100 µM, the GI50 (OVCAR-4 ovarian) was 31.3 µM and the TGI (OVCAR-4 ovarian) was greater than 100 µM. The GI50 (OVCAR-5 ovarian) was greater than 100 µM, the TGI (OVCAR-5 ovarian) was greater than 100 µM and the GI50 (OVCAR-8 ovarian) was 35.3 µM. The TGI (OVCAR-8 ovarian) was 96.9 µM, the GI50 (PC-3 prostate) was greater than 100 µM and the TGI (PC-3 prostate) was greater than 100 µM. It also gave a GI50 (RPMI-8226 leukemia) of 21.9 µM, a TGI (RPMI-8226 leukemia) greater than 70.8 µM and a GI50 (RXF 393 renal) of 22.9 µM. For the same compound, the TGI (RXF 393 renal) was 69.6 µM, the GI50 (SF-268 CNS) was greater than 76.2 µM and the TGI (SF-268 CNS) was greater than 100 µM. For the same compound, the GI50 (SF-295 CNS) was greater than 57.4 µM, the TGI (SF-295 CNS) was greater than 100 µM and the GI50 (SF-539 CNS) was greater than 100 µM. For the same compound, the TGI (SF-539 CNS) was greater than 100 µM, the GI50 (SK-MEL-28 melanoma) was greater than 100 µM and the TGI (SK-MEL-28 melanoma) was greater than 100 µM. It also gave a GI50 (SK-MEL-5 melanoma) of 17.5 µM, a TGI (SK-MEL-5 melanoma) of 36.5 µM and a GI50 (SK-OV-3 ovarian) greater than 64.3 µM. The TGI (SK-OV-3 ovarian) was greater than 100 µM, the GI50 (SN12C renal) was greater than 100 µM and the TGI (SN12C renal) was greater than 100 µM. It also gave a GI50 (SNB-19 CNS) greater than 100 µM, a TGI (SNB-19 CNS) greater than 100 µM and a GI50 (SNB-75 CNS) greater than 74.4 µM. The TGI (SNB-75 CNS) was greater than 100 µM, the GI50 (SR leukemia) was 15.9 µM and the TGI (SR leukemia) was 33.8 µM. It also gave a GI50 (SW-620 colon) greater than 100 µM, a TGI (SW-620 colon) greater than 100 µM and a GI50 (T-47D breast) of 17.8 µM. For the same compound, the TGI (T-47D breast) was 59.4 µM, the GI50 (TK-10 renal) was greater than 100 µM and the TGI (TK-10 renal) was greater than 100 µM. The GI50 (U251 glioblastoma) was greater than 100 µM, the TGI (U251 glioblastoma) was greater than 100 µM and the GI50 (UACC-257 melanoma) was greater than 80.4 µM. For the same compound, the TGI (UACC-257 melanoma) was greater than 100 µM, the GI50 (UACC-62 melanoma) was greater than 80.4 µM and the TGI (UACC-62 melanoma) was greater than 100 µM. The GI50 (UO-31 renal) was greater than 45.2 µM and the TGI (UO-31 renal) was greater than 63 µM.
